# Key:
# [1] = system: Pseudomonas aeruginosa DSM 1117; test: Antibacterial growth assay (OD600); details: for Bacterial growth relative to medium, P. aeruginosa (1117), replicate 1 / Bacterial growth relative to medium, P. aeruginosa (1117), replicate 2 / Bacterial growth relative to medium, P. aeruginosa (1117), replicate 3: OD600, medium = 100, MH II broth; for Bacterial growth relative to medium, P. aeruginosa (1117), replicate 1: replicate column 1; for Bacterial growth relative to medium, P. aeruginosa (1117), replicate 2: replicate column 2; for Bacterial growth relative to medium, P. aeruginosa (1117), replicate 3: replicate column 3
# Description: (§1) Cryo-conserved cultures of selected bacterial strains (Table 4) were transferred to Tryptic Soy Agar (TSA) plates (Carl Roth) with a sterile inoculation loop, sealed with Parafilm (BEMIS, Neenah, WI, USA), and incubated for 1–2 days at 37 °C depending on growth. Single colonies were picked and transferred into 2–3 mL of the Mueller–Hinton II (MH II) broth (BD, Heidelberg, Germany). The bacteria were cultivated overnight, subcultured on fresh medium and grown for 3–4 h before testing at 37 °C, with shaking at 180 rpm. We measured the optical density at 600 nm (OD600) of 1 mL of the bacterial suspensions in polystyrene cuvettes (SARSTED, Nümbrecht, Germany) using an Ultrospec 10 spectrophotometer (Biochrome, Cambridge, UK). We then diluted them with the MH II medium to the preferred OD600 (Table 2). The peptides were dissolved in DMSO to generate 10 mmol/L stocks and diluted with the MH II medium to 200 µM before the assay. We used 10 µg/mL (~40 µg/mL for S. epidermidis) gentamicin and colistin (Sigma-Aldrich, Taufkirchen, Germany), DMSO and the medium only as controls. The bacteria were transferred to 96-multiwell plates with a final volume of 100 µL per well (50 µL bacterial suspension, and 50 µL test peptide). The OD600 was measured at 0, 24 and 48 h using a BioTek Eon microplate reader followed by analysis with Gen5 v2.09.
# [2] = system: Staphylococcus aureus DSM 2569; test: Antibacterial growth assay (OD600); details: OD600, medium = 100, MH II broth; for Bacterial growth relative to medium, S. aureus, replicate 1: replicate column 1; for Bacterial growth relative to medium, S. aureus, replicate 2: replicate column 2; for Bacterial growth relative to medium, S. aureus, replicate 3: replicate column 3
# [3] = system: Escherichia coli BL21(DE3); test: Antibacterial growth assay (OD600); details: OD600, medium = 100, MH II broth; for Bacterial growth relative to medium, E. coli, replicate 1: replicate column 1; for Bacterial growth relative to medium, E. coli, replicate 2: replicate column 2; for Bacterial growth relative to medium, E. coli, replicate 3: replicate column 3
# Description: as §1
# [4] = system: Listeria monocytogenes DSM 20600; test: Antibacterial growth assay (OD600); details: for Bacterial growth relative to medium, L. monocytogenes, replicate 1 / Bacterial growth relative to medium, L. monocytogenes, replicate 2 / Bacterial growth relative to medium, L. monocytogenes, replicate 3: OD600, medium = 100, MH II broth; for Bacterial growth relative to medium, L. monocytogenes, replicate 1: replicate column 1; for Bacterial growth relative to medium, L. monocytogenes, replicate 2: replicate column 2; for Bacterial growth relative to medium, L. monocytogenes, replicate 3: replicate column 3
# Description: as §1
# [5] = system: Micrococcus luteus DSM 20030; test: Antibacterial growth assay (OD600); details: OD600, medium = 100, MH II broth; for Bacterial growth relative to medium, M. luteus, replicate 1: replicate column 1; for Bacterial growth relative to medium, M. luteus, replicate 2: replicate column 2; for Bacterial growth relative to medium, M. luteus, replicate 3: replicate column 3
# [6] = system: Staphylococcus epidermidis DSM 28319; test: Antibacterial growth assay (OD600); details: for Bacterial growth relative to medium, S. epidermidis, replicate 1: replicate column 1; for Bacterial growth relative to medium, S. epidermidis, replicate 2: replicate column 2; for Bacterial growth relative to medium, S. epidermidis, replicate 3: replicate column 3
# [7] = system: Pseudomonas aeruginosa DSM 50071; test: Antibacterial growth assay (OD600); details: OD600, medium = 100, MH II broth; for Bacterial growth relative to medium, P. aeruginosa (50071), replicate 1: replicate column 1; for Bacterial growth relative to medium, P. aeruginosa (50071), replicate 2: replicate column 2; for Bacterial growth relative to medium, P. aeruginosa (50071), replicate 3: replicate column 3
# Description: as §1
# [8] = system: B/Malaysia/2506/2004 (B-Mal); format: cell-based, influenza virus
# [9] = system: A/Hamburg/05/2009 (H1N1); format: cell-based, influenza virus
# [10] = system: panel of seven bacterial strains; test: Antibacterial growth assay (OD600), statements on the whole panel; format: cell-based; details: growth after 48 h
# [11] = system: A/Hessen/1/2003 (H3N2); format: cell-based, influenza virus
# [12] = antibiotic control, table line says 10µg/mL (methods: ~40 µg/mL for S. epidermidis), OD600, medium = 100
# [13] = 37 °C, peptide 200 µM mixed 50 µL + 50 µL with bacteria, Figure 7: 48 h
# [14] = OD600, medium = 100, MH II broth, 37 °C, peptide 200 µM mixed 50 µL + 50 µL with bacteria, Figure 7: 48 h
compound,measurement,setting,value
"CNC(C)C1CCC(N)C(OC2C(N)CC(N)C(OC3OCC(C)(O)C(NC)C3O)C2O)O1 (centres unmarked) [Genta, gentamicin, reference compound]","Bacterial growth relative to medium, P. aeruginosa (1117), replicate 1",[1]; antibiotic control 10µg/mL,7.251
same,"Bacterial growth relative to medium, P. aeruginosa (1117), replicate 2",[1]; antibiotic control 10µg/mL,12.1419
same,"Bacterial growth relative to medium, P. aeruginosa (1117), replicate 3",[1]; antibiotic control 10µg/mL,0.7836
same,"Bacterial growth relative to medium, S. aureus, replicate 1",[2]; antibiotic control 10µg/mL,10.1302
same,"Bacterial growth relative to medium, S. aureus, replicate 2",[2]; antibiotic control 10µg/mL,22.1938
same,"Bacterial growth relative to medium, S. aureus, replicate 3",[2]; antibiotic control 10µg/mL,8.389
same,"Bacterial growth relative to medium, E. coli, replicate 1",[3]; antibiotic control 10µg/mL,15.2669
same,"Bacterial growth relative to medium, E. coli, replicate 2",[3]; antibiotic control 10µg/mL,26.3127
same,"Bacterial growth relative to medium, E. coli, replicate 3",[3]; antibiotic control 10µg/mL,7.573
same,"Bacterial growth relative to medium, L. monocytogenes, replicate 1",[4]; antibiotic control 10µg/mL,41.2443
same,"Bacterial growth relative to medium, L. monocytogenes, replicate 2",[4]; antibiotic control 10µg/mL,32.6505
same,"Bacterial growth relative to medium, L. monocytogenes, replicate 3",[4]; antibiotic control 10µg/mL,13.0219
same,"Bacterial growth relative to medium, M. luteus, replicate 1",[5]; antibiotic control 10µg/mL,34.7531
same,"Bacterial growth relative to medium, M. luteus, replicate 2",[5]; antibiotic control 10µg/mL,33.0988
same,"Bacterial growth relative to medium, M. luteus, replicate 3",[5]; antibiotic control 10µg/mL,25.6914
same,"Bacterial growth relative to medium, S. epidermidis, replicate 1",[6]; [12],41.1615
same,"Bacterial growth relative to medium, S. epidermidis, replicate 2",[6]; [12],36.2191
same,"Bacterial growth relative to medium, S. epidermidis, replicate 3",[6]; [12],58.2561
same,"Bacterial growth relative to medium, P. aeruginosa (50071), replicate 1",[7]; antibiotic control 10µg/mL,10.9397
same,"Bacterial growth relative to medium, P. aeruginosa (50071), replicate 2",[7]; antibiotic control 10µg/mL,9.403
same,"Bacterial growth relative to medium, P. aeruginosa (50071), replicate 3",[7]; antibiotic control 10µg/mL,6.959
SLFGLLDLVKNKVGQTGLL [LS-AMP-A2],"Viability of infected cells relative to aprotinin, Replicate 1",[8],0.03127
same,"Viability of infected cells relative to aprotinin, Replicate 2",[8],0.04494
same,"Viability of infected cells relative to aprotinin, Replicate 3",[8],0.06464
same,"Bacterial growth relative to medium, P. aeruginosa (1117), replicate 1",[1]; [13],64.5445
same,"Bacterial growth relative to medium, P. aeruginosa (1117), replicate 2",[1]; [13],72.5374
same,"Bacterial growth relative to medium, P. aeruginosa (1117), replicate 3",[1]; [13],62.225
same,Antibacterial activity (in words),"[1]; P. aeruginosa DSM 1117, growth after 48 h",less effective
same,"Bacterial growth relative to medium, S. aureus, replicate 1",[2]; [13],88.0937
same,"Bacterial growth relative to medium, S. aureus, replicate 2",[2]; [13],87.9986
same,"Bacterial growth relative to medium, S. aureus, replicate 3",[2]; [13],104.003
same,"Viability of infected cells relative to aprotinin, Replicate 1",[9],0.06714
same,"Viability of infected cells relative to aprotinin, Replicate 2",[9],0.03978
same,"Viability of infected cells relative to aprotinin, Replicate 3",[9],0.06798
same,"Viability of infected cells relative to aprotinin, Replicate 4","[9]; […], replicate 4 (additional internal control)",0.02665
same,"Viability of infected cells relative to aprotinin, Replicate 5","[9]; […], replicate 5 (additional internal control)",0.03333
same,"Bacterial growth relative to medium, E. coli, replicate 1",[3]; [13],128.192
same,"Bacterial growth relative to medium, E. coli, replicate 2",[3]; [13],150.174
same,"Bacterial growth relative to medium, E. coli, replicate 3",[3]; [13],124.918
same,Antibacterial activity over the panel (in words),[10],limited activity
same,"Viability of infected cells relative to aprotinin, Replicate 1",[11],0.05065
same,"Viability of infected cells relative to aprotinin, Replicate 2",[11],0.0432
same,"Viability of infected cells relative to aprotinin, Replicate 3",[11],0.03436
same,Antibacterial activity (in words),"[4]; L. monocytogenes DSM 20600, growth after 48 h",less effective
same,"Bacterial growth relative to medium, L. monocytogenes, replicate 1",[4]; [13],66.982
same,"Bacterial growth relative to medium, L. monocytogenes, replicate 2",[4]; [13],116.711
same,"Bacterial growth relative to medium, L. monocytogenes, replicate 3",[4]; [13],86.9442
same,"Bacterial growth relative to medium, M. luteus, replicate 1",[5]; [13],118.679
same,"Bacterial growth relative to medium, M. luteus, replicate 2",[5]; [13],181.194
same,"Bacterial growth relative to medium, M. luteus, replicate 3",[5]; [13],65.5667
same,"Bacterial growth relative to medium, S. epidermidis, replicate 1",[6]; [14],112.577
same,"Bacterial growth relative to medium, S. epidermidis, replicate 2",[6]; [14],143.959
same,"Bacterial growth relative to medium, S. epidermidis, replicate 3",[6]; [14],90.9149
same,"Bacterial growth relative to medium, P. aeruginosa (50071), replicate 1",[7]; [13],100.368
same,"Bacterial growth relative to medium, P. aeruginosa (50071), replicate 2",[7]; [13],113.753
same,"Bacterial growth relative to medium, P. aeruginosa (50071), replicate 3",[7]; [13],87.799
